SMILES strings stand for the structures.

Data set [1] concerns Huh-7. The experiment in a line: (§1) Cytotoxicity against human HuH7 cells. Conditions: huh-7; call rule not given here. In kind it is cell-based.
A further data set concerns Hepatitis C virus. In words: Antiviral activity against Hepatitis C virus assessed as inhibition of viral replication. It is filed as functional, organism-based, Hepacivirus hominis.
Data set [2] is described as follows: as §1. It is filed as cell-based, Huh-7. The note with it: HuH7 cells.
Data set [3] can be described thus: Prodrug activation in trizma buffer assessed as formation of (2S)-2-((((2R,3R,4R,5R)-5-(2-amino-4-methoxy-7H-pyrrolo[2,3-d]pyrimidin-7-yl)-3,4-dihydroxy-4-methyltetrahydrofuran-2-yl)methoxy)(hydroxy)phosphorylamino)propanoic acid by NMR assay in presence of carboxypeptidase Y.
The test system of data set [4] is Huh-7. In words: Prodrug activation in human HuH7 cell lysate assessed as formation of ((2R,3R,4R,5R)-5-(2-amino-4-methoxy-7H-pyrrolo[2,3-d]pyrimidin-7-yl)-3,4-dihydroxy-4-methyltetrahydrofuran-2-yl)methyl dihydrogen phosphate after 48 hrs by NMR assay. In kind it is cell-based. Conditions: huh-7, 48 h.
The test system of data set [5] is Huh-7. In words: Prodrug activation in human HuH7 cell lysate assessed as formation of ((2R,3R,4R,5R)-5-(2-amino-4-methoxy-7H-pyrrolo[2,3-d]pyrimidin-7-yl)-3,4-dihydroxy-4-methyltetrahydrofuran-2-yl)methyl dihydrogen phosphate by NMR assay. It is filed as cell-based.
A short description of data set [6]: Prodrug activation in phosphate buffer at pH 7.4 after 4 hrs by UV analysis in presence of calf adenosine deaminase. Conditions: pH 7.4, 4 h.

The term CC50 denotes the concentration that lowers cell viability or growth by half. A higher CC50 goes with better tolerance by the cells. The term EC50 denotes the concentration that produces a half-maximal response. Take `COc1nc(N)nc2c1ccn2[C@@H]1O[C@H](COP(=O)(N[C@@H](C)C(=O)OC2CCCCC2)Oc2cccc3ccccc23)[C@@H](O)[C@@]1(C)O` (single isomer, unassigned; fast eluting): the CC50 in the data set on Huh-7 [1] came out at 18 µM. Also, the EC50 in the data set on Hepatitis C virus is 13.3 µM.
In turn, `COc1nc(N)nc2c1ncn2[C@@H]1O[C@H](COP(=O)(N[C@@H](C)C(=O)OCC(C)(C)C)Oc2cccc3ccccc23)[C@@H](O)[C@@]1(C)O` (some centres undefined) [BMS-986094] returned a CC50 in data set [2] of 6 µM. Moreover, in the data set with Hepatitis C virus (Hepatitis C virus), the EC50 worked out at 0.01 µM.
In the same order, the values of `COc1nc(N)nc2c1ccn2[C@@H]1O[C@H](COP(=O)(N[C@@H](C)C(=O)OCc2ccccc2)Oc2cccc3ccccc23)[C@@H](O)[C@@]1(C)O` (some centres undefined) are 27 µM and 27.3 µM.
Taken in the same sequence, the figures for `COc1nc(N)nc2c1ncn2[C@@H]1O[C@H](COP(=O)(N[C@@H](C)C(=O)OCc2ccccc2)Oc2cccc3ccccc23)[C@@H](O)[C@@]1(C)O` (some centres undefined) were 11 µM and 0.02 µM.
In turn, `COc1nc(N)nc2c1ccn2[C@@H]1O[C@H](COP(=O)(N[C@@H](C)C(=O)OC2CCCCC2)Oc2cccc3ccccc23)[C@@H](O)[C@@]1(C)O` (single isomer, unassigned; slow eluting) showed a half-maximal cytotoxic concentration (CC50) in data set [2] of 13 µM. Moreover, the EC50 with Hepatitis C virus (Hepatitis C virus) is 8.9 µM.
The compound `COc1nc(N)nc2c1ccn2[C@@H]1O[C@H](COP(=O)(N[C@@H](C)C(=O)OCC(C)(C)C)Oc2cccc3ccccc23)[C@@H](O)[C@@]1(C)O` (some centres undefined) registered a CC50 in data set [2] of 27 µM. Also, the Drug metabolism result in data set [3] is “Active”; in the data set on Huh-7 [4], “Not Active”. Further, the EC50 with Hepatitis C virus (Hepatitis C virus) was determined as 12.9 µM.
`C[C@@]1(O)[C@H](O)[C@@H](CO)O[C@H]1n1ccc2c(N)ncnc21` [BETA-2'-C-METHYL-7-DEAZA-ADENOSINE] displayed a CC50 in data set [2] of over 100 µM. The EC50 in the data set on Hepatitis C virus (Hepatitis C virus) was 0.25 µM.
With `COc1nc(N)nc2c1ccn2[C@@H]1O[C@H](COP(=O)(O)O)[C@@H](O)[C@@]1(C)O`, in the data set with Huh-7 [5], the Drug metabolism result was “Active”.
`COc1nc(N)nc2c1ncn2[C@@H]1O[C@H](CO)[C@@H](O)[C@@]1(C)O` [BETA-2'-C-METHYL-6-O-METHYL GUANOSINE] gave a half-maximal cytotoxic concentration (CC50) in data set [2] of over 100 µM. For the same compound, the EC50 in the data set with Hepatitis C virus (Hepatitis C virus) turned out to be 3 µM.
Take `COc1nc(N)nc2c1ccn2[C@@H]1O[C@H](CO)[C@@H](O)[C@@]1(C)O`: in data set [6], the Stability entry is “Stable”. In data set [2], this compound displayed a CC50 of over 100 µM. Moreover, the EC50 in the data set with Hepatitis C virus (Hepatitis C virus) was over 100 µM.
In data set [2], `COc1nc(N)nc2c1ncn2[C@@H]1O[C@H](COP(=O)(N[C@@H](C)C(=O)OC2CCCCC2)Oc2cccc3ccccc23)[C@@H](O)[C@@]1(C)O` (some centres undefined) registered a CC50 of 6 µM. Moreover, the EC50 in the data set on Hepatitis C virus (Hepatitis C virus) was determined as 0.03 µM.
